Each compound was assayed on Bifidobacterium lactis PTA-4802 (assay: Antibiotic sensitivity profile (NCCLS M11-A5 agar dilution MIC)). Conditions: MRS + cysteine agar; sensitivity of strain PTA-4802 to the antibiotic.
Format: cell-based

| Compound | Antibiotic Sensitivity (S/I/R) |
| --- | --- |
| Polymyxin B | R (MIC >64 ug/ml = Resistant (R)) |
| Neomycin | R (MIC >64 ug/ml = Resistant (R)) |
| Gentamicin | R (MIC >64 ug/ml = Resistant (R)) |
| CC1(C)S[C@@H]2[C@H](NC(=O)Cc3ccccc3)C(=O)N2[C@H]1C(=O)O [Penicillin G] | S (MIC <4 ug/ml = Sensitive (S)) |

From patent publication US7179460B2, “Bacterial composition and its use” (priority 2002, dated 2007)
